Results on 9 compounds are retold here after ChEMBL document CHEMBL5104178, “Nitroimidazopyrazinones with Oral Activity against Tuberculosis and Chagas Disease in Mouse Models of Infection” (J Med Chem, 2022).

In brackets after ≈: the same amount, converted by molar mass.

Data set [1] is described as follows: Tmax in CD-1 mouse at 20 mg/kg, po administered as DMSO/PEG400 formulation measured upto 24 hrs by LC-MS/MS analysis. Format: ADME, organism-based. To be noted: in vivo.
A short description of data set [2]: AUC(0 to 24 hrs) in CD-1 mouse at 20 mg/kg, po administered as DMSO/PEG400 formulation measured upto 24 hrs by LC-MS/MS analysis. It is filed as ADME, organism-based. Also noted: dose 20 mg/kg, time < 24 hrs, route po. Particulars: in vivo.
The nature of data set [3]: Cmax in CD-1 mouse at 20 mg/kg, po administered as DMSO/PEG400 formulation measured upto 24 hrs by LC-MS/MS analysis. It is filed as ADME, organism-based. Also noted: dose 20 mg/kg, time < 24 hrs, route po. To be noted: in vivo.
Data set [4] is described as follows: Oral bioavailability in CD-1 mouse at 20 mg/kg administered as DMSO/PEG400 formulation measured upto 24 hrs by LC-MS/MS analysis. Format: ADME, organism-based. To be noted: in vivo.
Data set [5] can be described thus: Clearance in CD-1 mouse at 5 mg/kg, iv administered as DMSO/PEG400 formulation measured upto 24 hrs by LC-MS/MS analysis. It is filed as ADME, organism-based. To be noted: in vivo.
Data set [6] in a line: Volume of distribution at steady state in CD-1 mouse at 5 mg/kg, iv administered as DMSO/PEG400 formulation measured upto 24 hrs by LC-MS/MS analysis. It is filed as ADME, organism-based. Particulars: in vivo, read-out: Vdss.
The nature of data set [7]: Half life in CD-1 mouse at 20 mg/kg, po administered as DMSO/PEG400 formulation measured upto 24 hrs by LC-MS/MS analysis. Format: ADME, organism-based. Particulars: in vivo.
The nature of data set [8]: Half life in CD-1 mouse at 5 mg/kg, iv administered as DMSO/PEG400 formulation measured upto 24 hrs by LC-MS/MS analysis. To be noted: in vivo. Format: ADME, organism-based.
Data set [9] has as its system Mycolicibacterium smegmatis. In words: Antimycobacterial activity against Mycobacterium smegmatis mc2155 ATCC 700084 assessed as bacterial growth inhibition incubated for 24 hrs under normoxic condition by resazurin microtiter assay. Format: functional. Background: The colour change of resazurin is a common sign of viable cells or microbes.
Data set [10] concerns Mycobacterium tuberculosis. Briefly: Antimycobacterial activity against Mycobacterium tuberculosis H37Ra ATCC 25177 assessed as bacterial growth inhibition incubated for 6 days under normoxic condition by resazurin microtiter assay. Format: functional. Particulars: H37Ra ATCC 25177, 144 h, time 6 day.
The subject of data set [11] is Mycobacterium tuberculosis. In words: Antimycobacterial activity against Mycobacterium tuberculosis H37Rv ATCC 27294 assessed as bacterial growth inhibition incubated for 5 days under normoxic condition by resazurin microtiter assay. Format: functional. To be noted: H37Rv ATCC 27294, 120 h, time 5 day.
Another data set relates to Mycobacterium avium. In words: Antimycobacterial activity against Mycobacterium avium ATCC 25291 assessed as bacterial growth inhibition incubated for 6 days under normoxic condition by resazurin microtiter assay. Format: functional. Particulars: ATCC 25291, 144 h, time 6 day.
Data set [12] can be described thus: Solubility of compound in PBS at 7.4 by LC-UV analysis. Format: physicochemical. Particulars: pH 7.4.
Data set [13] deals with Mycobacterium tuberculosis. In words: Antimycobacterial activity against Mycobacterium tuberculosis H37Rv ATCC 27294 assessed as bacterial growth inhibition incubated for 5 days under hypoxic condition by resazurin microtiter assay. Format: functional. To be noted: H37Rv ATCC 27294, 120 h, time 5 day.
Data set [14] in a line: Solubility of compound in water by LC-UV analysis. It is filed as physicochemical.
Data set [15] in a line: AUC(0 to 8 hrs) in CD-1 mouse at 20 mg/kg, po administered as DMSO/PEG400/Cremophor RH40/water formulation measured upto 24 hrs by LC-MS/MS analysis. It is filed as ADME, organism-based. The arrangement: time < 24 hrs, dose 20 mg/kg, route po. Particulars: in vivo.
Data set [16] has as its system Mycobacterium tuberculosis. In words: Substrate activity at Mycobacterium tuberculosis Ddn expressed in Escherichia coli BL21 (DE3) assessed as oxidation of F420H2 by measuring Kcat/Km by spectrophotometric analysis.
The nature of data set [17]: Volume of distribution at steady state in CD-1 mouse at 5 mg/kg, iv administered as DMSO/PEG400/Cremophor RH40/water formulation measured upto 24 hrs by LC-MS/MS analysis. It is filed as ADME, organism-based. Particulars: in vivo, read-out: Vdss.
Data set [18] relates to Mycobacterium tuberculosis. In words: Substrate activity at Mycobacterium tuberculosis Ddn expressed in Escherichia coli BL21 (DE3) assessed as oxidation of F420H2 by measuring Kcat by spectrophotometric analysis.
A short description of data set [19]: Tmax in CD-1 mouse at 20 mg/kg, po administered as DMSO/PEG400/Cremophor RH40/water formulation measured upto 24 hrs by LC-MS/MS analysis. Format: ADME, organism-based. Particulars: in vivo.
Data set [20] in a line: Oral bioavailability in CD-1 mouse at 20 mg/kg administered as DMSO/PEG400/Cremophor RH40/water formulation measured upto 24 hrs by LC-MS/MS analysis. Format: ADME, organism-based. To be noted: in vivo.
Data set [21] is described as follows: Half life in CD-1 mouse at 5 mg/kg, iv administered as DMSO/PEG400/Cremophor RH40/water formulation measured upto 24 hrs by LC-MS/MS analysis. It is filed as ADME, organism-based. To be noted: in vivo.
Data set [22] in a line: Cmax in CD-1 mouse at 20 mg/kg, po administered as DMSO/PEG400/Cremophor RH40/water formulation measured upto 24 hrs by LC-MS/MS analysis. Format: ADME, organism-based. Also noted: dose 20 mg/kg, time < 24 hrs, route po. Particulars: in vivo.
Data set [23] in a line: Clearance in CD-1 mouse at 5 mg/kg, iv administered as DMSO/PEG400/Cremophor RH40/water formulation measured upto 24 hrs by LC-MS/MS analysis. It is filed as ADME, organism-based. Particulars: in vivo.
A short description of data set [24]: Half life in CD-1 mouse at 20 mg/kg, po administered as DMSO/PEG400/Cremophor RH40/water formulation measured upto 24 hrs by LC-MS/MS analysis. Format: ADME, organism-based. To be noted: in vivo.
Data set [25] concerns Mycobacterium tuberculosis. In words: Substrate activity at Mycobacterium tuberculosis Ddn expressed in Escherichia coli BL21 (DE3) assessed as oxidation of F420H2 by measuring Km by spectrophotometric analysis.

For `O=c1c2nc([N+](=O)[O-])cn2ccn1Cc1ccc(-c2ccc(OC(F)(F)F)cc2)cn1`, in data set [1], the Tmax came to 5.3 h. Further, the AUC(0-t) at 24 h in data set [2] is 45900 ng·h/mL. In data set [3], this compound came in with a Cmax of 3600 ng/mL. The compound also had a bioavailability in data set [4] of 45%. This compound showed a clearance in data set [5] of 2.06 mL/min/kg. In addition, the Vd in [6] was 1.3 L/kg. Also, the half-life in data set [7] is 366 min; in data set [8], 432 min.

On to `Cc1cn2cc([N+](=O)[O-])nc2c(=O)n1Cc1ccc(OC(F)(F)F)cc1`, for which the MIC was more than 32 µg/mL in data set [9], 4 µg/mL (≈ 10.9 µM) in data set [10], more than 32 µg/mL in data set [11] and more than 32 µg/mL in the data set on Mycobacterium avium.

As for `O=C1c2nc([N+](=O)[O-])cn2CN1Cc1ccccc1`, the solubility in [12] amounted to 5.9 µM (≈ 1.52 µg/mL); in data set [14] (water, read-out: solubility), 5.9 µM (≈ 1.52 µg/mL). In addition, the MIC in [13] and in [11] was more than 32 µg/mL throughout.

Take `O=c1[nH]c(-c2ccccc2)cn2cc([N+](=O)[O-])nc12`: the MIC (in [13]; in data set [9]; in data set [10]; in data set [11]; in the data set on Mycobacterium avium) was more than 32 µg/mL in each case. The area under the curve AUC(0-t) at 24 h in data set [15] was determined as 88300 ng·h/mL. In addition, the solubility in data set [14] (buffer) turned out to be 27 µM (≈ 6.92 µg/mL). Besides, the kcat/Km in [16] was determined as 8.1 M⁻¹ s⁻¹. In addition, the Vd in data set [17] stood at 0.34 L/kg. The turnover number (kcat) in [18] is 1.3 10^-3/s. Also, the time to peak (Tmax) in data set [19] is 2 h. This compound yielded a bioavailability in data set [20] of 87%. Further, the half-life in data set [21] was 72 min; in data set [24], 192 min. In data set [22], this compound yielded a Cmax of 13000 ng/mL. This compound also displayed a clearance in [23] of 3.38 mL/min/kg. Besides, the Km in data set [25] was determined as 164 µM.

In the case of `Cc1ccc(Cn2ccn3cc([N+](=O)[O-])nc3c2=O)cc1`, the kcat/Km in data set [16] is 1710 M⁻¹ s⁻¹. Moreover, the kcat in [18] is 4.3 10^-3/s. Besides, the Km in data set [25] was found to be 2.5 µM.

As for `O=c1c2nc([N+](=O)[O-])cn2ccn1Cc1ccc(-c2cccc(OC(F)(F)F)c2)nc1`, the catalytic efficiency (kcat/Km) in data set [16] came out at 266 M⁻¹ s⁻¹. In addition, the kcat in [18] is 1.3 10^-3/s. Besides, in data set [25], the Michaelis constant (Km) was 5 µM.

As for `O=c1c2nc([N+](=O)[O-])cn2ccn1Cc1ccccc1`, the solubility in data set [12] came out at 2.7 µM (≈ 0.73 µg/mL); in data set [14] (water, read-out: solubility) it was 3.2 µM (≈ 0.865 µg/mL).

As for `O=C(NCc1ccc(OC(F)(F)F)cc1)c1ncc([N+](=O)[O-])[nH]1`, the kcat/Km in data set [16] stood at 6.9 M⁻¹ s⁻¹. Further, in [18], the turnover number (kcat) is 2.1 10^-4/s. Besides, the Km in data set [25] amounted to 31 µM.

In the case of `NNC(=O)c1ccncc1` [ISONIAZID], the MIC is more than 32 µg/mL in data set [9], 0.031 µg/mL (≈ 0.226 µM) in [10] and more than 32 µg/mL in the data set on Mycobacterium avium.

Broadly, the Tmax is the time from dosing to the highest level. A word on the AUC(0-t): it is the area under the concentration-time curve up to a stated or last time point. The Cmax is the peak of the concentration-time curve. What is called bioavailability is dose-corrected exposure relative to a reference, in per cent. Usually clearance stands for a measure of how efficiently the substance is removed, as volume per time. Low values mean a low capacity for elimination, high ones a high capacity for elimination. The term half-life denotes how long it takes for the measured level to halve. What is called MIC is the least concentration at which growth counts as inhibited. A word on the solubility: it is the dissolved amount per volume that the medium holds. As a reminder, the kcat/Km is the turnover number divided by the Michaelis constant. One may read the kcat as the maximal rate divided by the concentration of active sites. As usually defined, the Km is the concentration of substrate that gives half-maximal velocity.
